According to PubChem BioAssay AID2060503 (Molecular Pharmacology Branch, DTP, NCI, 2025):

Test system: 817829-284-R-J1-PDC complex spheroids, viability
Assay: Anticancer human tumor 817829-284-R-J1-PDC patient-derived colon adenocarcinoma cell line growth inhibition [GQUAD]
Details: second compound 0.0316 µM; first compound 3.16 µM; hits give low values
Procedure, shortened: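 Multi-cell-type spheroids of tumor cells with HUVEC and mesenchymal stem cells, treated with drug combinations. Concentrations descend in half-log steps from near clinical Cmax, or from 10 microM where Cmax is unknown; viability read-out.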
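Note: spheroids exposed to agents for 7 days before readout; percent viability relative to DMSO vehicle control taken as 100%.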

Compared with `COc1ccc([C@@H](O)c2cc(-c3ncnc4cc(N5CCOCC5)ccc34)c(F)cc2Cl)nn1` + Cc1cnc(CNC(=O)c2c(=O)c3ccc(N4CCCN(C)CC4)nc3n3c2sc2ccccc23)cn1, `O=C(c1cc(Cc2n[nH]c(=O)c3ccccc23)ccc1F)N1CCN(C(=O)C2CC2)CC1` + Cc1cnc(CNC(=O)c2c(=O)c3ccc(N4CCCN(C)CC4)nc3n3c2sc2ccccc23)cn1 is higher in viability, T/C: 27.9% for the first, 44.2% for the second.

Compared with `Nc1ccn(C2OC(CO)C(O)C2(F)F)c(=O)n1` (configuration not stated) + Cc1cnc(CNC(=O)c2c(=O)c3ccc(N4CCCN(C)CC4)nc3n3c2sc2ccccc23)cn1, `O=c1[nH]cc(F)c(=O)[nH]1` + Cc1cnc(CNC(=O)c2c(=O)c3ccc(N4CCCN(C)CC4)nc3n3c2sc2ccccc23)cn1 is higher in viability, T/C: 5.09% for the first, 37.6% for the second.

Same assay, conditions: second compound 0.0316 µM; first compound 10 µM; hits give low values

Compared with `COc1ncnc(C2CC2)c1-c1ncc2cnn(Cc3ccc(-c4nc(C(F)(F)F)cn4C(C)C)cc3)c2n1` + Cc1[nH]c2ccc(F)cc2c1-c1nc2c3cccnc3c3ncccc3c2[nH]1, `CC(C)n1c(=O)n(C)c2cnc3cc(F)c(-c4ccc(OCCCN5CCCCC5)nc4)cc3c21` + Cc1cnc(CNC(=O)c2c(=O)c3ccc(N4CCCN(C)CC4)nc3n3c2sc2ccccc23)cn1 is lower in viability, T/C: 109% for the first, 12.1% for the second.

First: C=CC(=O)N1CCN(c2nc(=O)n(-c3c(C)ccnc3C(C)C)c3nc(-c4c(O)cccc4F)c(F)cc23)C(C)C1 (configuration not stated) + Cc1cnc(CNC(=O)c2c(=O)c3ccc(N4CCCN(C)CC4)nc3n3c2sc2ccccc23)cn1
Second: O=C(c1cc(Cc2n[nH]c(=O)c3ccccc23)ccc1F)N1CCN(C(=O)C2CC2)CC1 + Cc1cnc(CNC(=O)c2c(=O)c3ccc(N4CCCN(C)CC4)nc3n3c2sc2ccccc23)cn1
The viability, T/C of the first is higher: 44.3% for the first, 35.6% for the second.

First: COc1ccc([C@@H](O)c2cc(-c3ncnc4cc(N5CCOCC5)ccc34)c(F)cc2Cl)nn1 + Cc1cnc(CNC(=O)c2c(=O)c3ccc(N4CCCN(C)CC4)nc3n3c2sc2ccccc23)cn1
Second: Nc1ccn(C2OC(CO)C(O)C2(F)F)c(=O)n1 (configuration not stated) + Cc1cnc(CNC(=O)c2c(=O)c3ccc(N4CCCN(C)CC4)nc3n3c2sc2ccccc23)cn1
The viability, T/C of the first is higher: 20.9% for the first, 3.11% for the second.

Molecule `O=c1[nH]cc(F)c(=O)[nH]1` + Cc1cnc(CNC(=O)c2c(=O)c3ccc(N4CCCN(C)CC4)nc3n3c2sc2ccccc23)cn1 has a viability, T/C of 33%.

Same assay, conditions: second compound 0.1 µM; first compound 0.0316 µM; hits give low values

First: COc1ncnc(C2CC2)c1-c1ncc2cnn(Cc3ccc(-c4nc(C(F)(F)F)cn4C(C)C)cc3)c2n1 + Cc1[nH]c2ccc(F)cc2c1-c1nc2c3cccnc3c3ncccc3c2[nH]1
Second: CC(C)n1c(=O)n(C)c2cnc3cc(F)c(-c4ccc(OCCCN5CCCCC5)nc4)cc3c21 + Cc1cnc(CNC(=O)c2c(=O)c3ccc(N4CCCN(C)CC4)nc3n3c2sc2ccccc23)cn1
The viability, T/C of the first is higher: 96.6% for the first, 30.4% for the second.

Going from `C=CC(=O)N1CCN(c2nc(=O)n(-c3c(C)ccnc3C(C)C)c3nc(-c4c(O)cccc4F)c(F)cc23)C(C)C1` (configuration not stated) + Cc1cnc(CNC(=O)c2c(=O)c3ccc(N4CCCN(C)CC4)nc3n3c2sc2ccccc23)cn1 to `O=C(c1cc(Cc2n[nH]c(=O)c3ccccc23)ccc1F)N1CCN(C(=O)C2CC2)CC1` + Cc1cnc(CNC(=O)c2c(=O)c3ccc(N4CCCN(C)CC4)nc3n3c2sc2ccccc23)cn1, the viability, T/C falls from 34.2% to 30.9%.

First: COc1ccc([C@@H](O)c2cc(-c3ncnc4cc(N5CCOCC5)ccc34)c(F)cc2Cl)nn1 + Cc1cnc(CNC(=O)c2c(=O)c3ccc(N4CCCN(C)CC4)nc3n3c2sc2ccccc23)cn1
Second: Nc1ccn(C2OC(CO)C(O)C2(F)F)c(=O)n1 (configuration not stated) + Cc1cnc(CNC(=O)c2c(=O)c3ccc(N4CCCN(C)CC4)nc3n3c2sc2ccccc23)cn1
The viability, T/C of the first is higher: 42% for the first, 18% for the second.

Work on `O=c1[nH]cc(F)c(=O)[nH]1` + Cc1cnc(CNC(=O)c2c(=O)c3ccc(N4CCCN(C)CC4)nc3n3c2sc2ccccc23)cn1 yielded a viability, T/C of 29.9%.

Same assay, conditions: second compound 0.1 µM; first compound 0.1 µM; hits give low values

First: COc1ncnc(C2CC2)c1-c1ncc2cnn(Cc3ccc(-c4nc(C(F)(F)F)cn4C(C)C)cc3)c2n1 + Cc1[nH]c2ccc(F)cc2c1-c1nc2c3cccnc3c3ncccc3c2[nH]1
Second: CC(C)n1c(=O)n(C)c2cnc3cc(F)c(-c4ccc(OCCCN5CCCCC5)nc4)cc3c21 + Cc1cnc(CNC(=O)c2c(=O)c3ccc(N4CCCN(C)CC4)nc3n3c2sc2ccccc23)cn1
The viability, T/C of the first is higher: 115% for the first, 27.3% for the second.

Going from `C=CC(=O)N1CCN(c2nc(=O)n(-c3c(C)ccnc3C(C)C)c3nc(-c4c(O)cccc4F)c(F)cc23)C(C)C1` (configuration not stated) + Cc1cnc(CNC(=O)c2c(=O)c3ccc(N4CCCN(C)CC4)nc3n3c2sc2ccccc23)cn1 to `O=C(c1cc(Cc2n[nH]c(=O)c3ccccc23)ccc1F)N1CCN(C(=O)C2CC2)CC1` + Cc1cnc(CNC(=O)c2c(=O)c3ccc(N4CCCN(C)CC4)nc3n3c2sc2ccccc23)cn1, the viability, T/C falls from 38.1% to 33.5%.

First: COc1ccc([C@@H](O)c2cc(-c3ncnc4cc(N5CCOCC5)ccc34)c(F)cc2Cl)nn1 + Cc1cnc(CNC(=O)c2c(=O)c3ccc(N4CCCN(C)CC4)nc3n3c2sc2ccccc23)cn1
Second: Nc1ccn(C2OC(CO)C(O)C2(F)F)c(=O)n1 (configuration not stated) + Cc1cnc(CNC(=O)c2c(=O)c3ccc(N4CCCN(C)CC4)nc3n3c2sc2ccccc23)cn1
The viability, T/C of the first is higher: 37.5% for the first, 10.7% for the second.

With `O=c1[nH]cc(F)c(=O)[nH]1` + Cc1cnc(CNC(=O)c2c(=O)c3ccc(N4CCCN(C)CC4)nc3n3c2sc2ccccc23)cn1 the viability, T/C was 41.6%.

Same assay, conditions: second compound 0.1 µM; first compound 0.316 µM; hits give low values

Going from `COc1ncnc(C2CC2)c1-c1ncc2cnn(Cc3ccc(-c4nc(C(F)(F)F)cn4C(C)C)cc3)c2n1` + Cc1[nH]c2ccc(F)cc2c1-c1nc2c3cccnc3c3ncccc3c2[nH]1 to `CC(C)n1c(=O)n(C)c2cnc3cc(F)c(-c4ccc(OCCCN5CCCCC5)nc4)cc3c21` + Cc1cnc(CNC(=O)c2c(=O)c3ccc(N4CCCN(C)CC4)nc3n3c2sc2ccccc23)cn1, the viability, T/C falls from 99.8% to 31.3%.

First: C=CC(=O)N1CCN(c2nc(=O)n(-c3c(C)ccnc3C(C)C)c3nc(-c4c(O)cccc4F)c(F)cc23)C(C)C1 (configuration not stated) + Cc1cnc(CNC(=O)c2c(=O)c3ccc(N4CCCN(C)CC4)nc3n3c2sc2ccccc23)cn1
Second: O=C(c1cc(Cc2n[nH]c(=O)c3ccccc23)ccc1F)N1CCN(C(=O)C2CC2)CC1 + Cc1cnc(CNC(=O)c2c(=O)c3ccc(N4CCCN(C)CC4)nc3n3c2sc2ccccc23)cn1
The viability, T/C of the first is lower: 30.2% for the first, 32.9% for the second.

Compared with `COc1ccc([C@@H](O)c2cc(-c3ncnc4cc(N5CCOCC5)ccc34)c(F)cc2Cl)nn1` + Cc1cnc(CNC(=O)c2c(=O)c3ccc(N4CCCN(C)CC4)nc3n3c2sc2ccccc23)cn1, `Nc1ccn(C2OC(CO)C(O)C2(F)F)c(=O)n1` (configuration not stated) + Cc1cnc(CNC(=O)c2c(=O)c3ccc(N4CCCN(C)CC4)nc3n3c2sc2ccccc23)cn1 is lower in viability, T/C: 31.9% for the first, 5.49% for the second.

Molecule `O=c1[nH]cc(F)c(=O)[nH]1` + Cc1cnc(CNC(=O)c2c(=O)c3ccc(N4CCCN(C)CC4)nc3n3c2sc2ccccc23)cn1 has a viability, T/C of 34.2%.

Same assay, conditions: second compound 0.1 µM; first compound 1 µM; hits give low values

First: COc1ncnc(C2CC2)c1-c1ncc2cnn(Cc3ccc(-c4nc(C(F)(F)F)cn4C(C)C)cc3)c2n1 + Cc1[nH]c2ccc(F)cc2c1-c1nc2c3cccnc3c3ncccc3c2[nH]1
Second: CC(C)n1c(=O)n(C)c2cnc3cc(F)c(-c4ccc(OCCCN5CCCCC5)nc4)cc3c21 + Cc1cnc(CNC(=O)c2c(=O)c3ccc(N4CCCN(C)CC4)nc3n3c2sc2ccccc23)cn1
The viability, T/C of the first is higher: 111% for the first, 23.4% for the second.

First: C=CC(=O)N1CCN(c2nc(=O)n(-c3c(C)ccnc3C(C)C)c3nc(-c4c(O)cccc4F)c(F)cc23)C(C)C1 (configuration not stated) + Cc1cnc(CNC(=O)c2c(=O)c3ccc(N4CCCN(C)CC4)nc3n3c2sc2ccccc23)cn1
Second: COc1ccc([C@@H](O)c2cc(-c3ncnc4cc(N5CCOCC5)ccc34)c(F)cc2Cl)nn1 + Cc1cnc(CNC(=O)c2c(=O)c3ccc(N4CCCN(C)CC4)nc3n3c2sc2ccccc23)cn1
The viability, T/C of the first is higher: 34.2% for the first, 24.2% for the second.

Molecule `Nc1ccn(C2OC(CO)C(O)C2(F)F)c(=O)n1` (configuration not stated) + Cc1cnc(CNC(=O)c2c(=O)c3ccc(N4CCCN(C)CC4)nc3n3c2sc2ccccc23)cn1 has a viability, T/C of 7.04%.
